Where a name gives a salt, the structure may show the parent alone.
Legend:
[1] = test system: H3K9me2 in MDA-MB-231 cells; experiment: MDA-MB-231 H3K9me2 in-cell western assay; type: cell-based; details: Homo sapiens, read-out: EHMT2 ICW (IC50 μM)
How it was run: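 MDA-MB-231 cells (3,000/well) exposed to compound for two consecutive 48 h periods at 37 °C, then fixed and stained for H3K9me2, with DRAQ5 as DNA stain and infrared read at 700/800 nm. Percent inhibition was set between DMSO and UNC0638 control wells. IC50 came from triplicate dose–response fits with a four-parameter model, top 100%, bottom 0%.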

EHMT1 = target: T1, EHMT1 (Homo sapiens, UniProt Q9H9B1); experiment: EHMT1 PEP (EHMT1 peptide enzyme assay); type: biochemical; details: peptide substrate enzyme assay
T1 sequence (Q9H9B1 1-1298): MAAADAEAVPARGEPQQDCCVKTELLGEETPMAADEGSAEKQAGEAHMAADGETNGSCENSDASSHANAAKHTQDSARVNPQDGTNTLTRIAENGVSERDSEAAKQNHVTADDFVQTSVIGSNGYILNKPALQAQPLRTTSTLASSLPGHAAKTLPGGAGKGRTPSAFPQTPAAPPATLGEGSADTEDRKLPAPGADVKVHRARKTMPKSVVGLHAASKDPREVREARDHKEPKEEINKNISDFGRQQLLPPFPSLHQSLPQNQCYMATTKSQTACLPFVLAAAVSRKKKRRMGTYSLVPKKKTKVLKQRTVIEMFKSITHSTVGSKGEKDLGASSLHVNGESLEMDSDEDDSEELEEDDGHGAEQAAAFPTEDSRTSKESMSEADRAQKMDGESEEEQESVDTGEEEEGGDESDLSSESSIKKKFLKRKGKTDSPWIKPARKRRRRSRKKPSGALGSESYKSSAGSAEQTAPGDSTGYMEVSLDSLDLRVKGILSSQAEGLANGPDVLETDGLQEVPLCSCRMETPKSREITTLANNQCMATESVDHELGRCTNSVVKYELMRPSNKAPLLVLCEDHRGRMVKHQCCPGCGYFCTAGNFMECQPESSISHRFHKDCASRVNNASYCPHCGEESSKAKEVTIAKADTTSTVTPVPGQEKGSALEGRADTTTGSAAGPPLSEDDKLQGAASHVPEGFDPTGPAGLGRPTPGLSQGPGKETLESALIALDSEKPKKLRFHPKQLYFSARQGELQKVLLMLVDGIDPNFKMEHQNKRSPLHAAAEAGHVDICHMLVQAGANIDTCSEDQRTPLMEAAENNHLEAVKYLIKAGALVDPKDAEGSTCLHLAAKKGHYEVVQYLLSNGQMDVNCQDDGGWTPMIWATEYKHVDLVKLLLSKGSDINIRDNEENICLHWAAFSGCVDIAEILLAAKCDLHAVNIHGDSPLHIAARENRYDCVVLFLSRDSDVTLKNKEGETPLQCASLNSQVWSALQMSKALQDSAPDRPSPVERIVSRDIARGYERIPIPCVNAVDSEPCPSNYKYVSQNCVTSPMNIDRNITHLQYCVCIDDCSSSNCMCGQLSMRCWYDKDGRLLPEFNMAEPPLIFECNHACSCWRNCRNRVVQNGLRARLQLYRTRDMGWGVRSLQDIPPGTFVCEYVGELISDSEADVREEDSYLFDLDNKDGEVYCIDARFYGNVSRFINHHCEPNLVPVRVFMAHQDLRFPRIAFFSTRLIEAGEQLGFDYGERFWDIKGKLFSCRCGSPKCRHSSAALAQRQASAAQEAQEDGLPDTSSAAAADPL

| IC50 [1] [µM] | IC50 (EHMT1) [µM] | Compound |
| --- | --- | --- |
| 1 to 10 | 1 to 10 | CNc1cc(C2CCOCC2)c2cc(OC)c(-n3cc(CN(C)C)nn3)cc2n1 [Compound 116] |
| 0.1 to 1 | < 0.1 | CNc1cc(C)nc(Nc2ccc(OC)c(-n3cc(C4CCCN4)nn3)c2)n1 (stereo not shown) [Compound 137, N2-(4-methoxy-3-(4-(pyrrolidin-2-yl)-1H-1,2,3-triazol-1-yl)phenyl)-N4,6-dimethylpyrimidine-2,4-diamine] |
| 0.1 to 1 | < 0.1 | CNc1cc(C)c2cc(OC)c(-n3cc(C4CCCN4)nn3)cc2n1 (stereo not shown) [Compound 125] |
| > 10 | 0.1 to 1 | CNC(=O)N1CC(CNc2cc(C)nc(Nc3ccc(OC)c(-n4cc5c(n4)CCN(C)C5)c3)n2)C1 [Compound 88] |
| > 10 | 1 to 10 | CNc1cc(C)nc(Nc2ccc(OC)c(-n3cc4c(n3)CCOC4)c2)n1 [Compound 43] |
| > 10 | 1 to 10 | CNc1cc(C)nc(Nc2ccc(OC)c(-c3nc4cnccc4[nH]3)c2)n1 [Compound 47] |
| > 10 | > 10 | CNc1cc(C)nc(Nc2ccc(OC)c(-n3ccc(CNC(C)=O)n3)c2)n1 [Compound 95] |
| > 10 | > 10 | CNc1cc(C)nc(Nc2ccc(OC)c(-n3cc4c(n3)CCN(C3COC3)C4)c2)n1 [Compound 69] |
| 1 to 10 | 0.1 to 1 | CCN(CC)Cc1cn(-c2cc(Nc3nc(C)cc(NC)n3)ccc2OC)nn1 [Compound 143] |
| 1 to 10 | 0.1 to 1 | CNc1cc(C)nc(Nc2ccc(OC)c(-n3cc(C)c(CN(C)C)n3)c2)n1 [Compound 102] |
| > 10 | > 10 | CNc1cc(C)nc(Nc2ccc(OC)c(-c3ccc4cc[nH]c4n3)c2)n1 [Compound 42] |
| 1 to 10 | 1 to 10 | CNc1cc(C)nc(Nc2cnc(OC)c(-c3nc4cnccn4n3)c2)n1 [Compound 60] |
| > 10 | > 10 | CNC(=O)c1c(C)nn(-c2cc(Nc3nc(C)cc(NC)n3)ccc2OC)c1C [Compound 105] |
| > 10 | > 10 | CNC(=O)c1nn(-c2cc(Nc3nc(C)cc(NC)n3)ccc2OC)cc1C [Compound 134] |
| > 10 | 1 to 10 | CNC(=O)c1cnn(-c2cc(Nc3nc(C)cc(NC)n3)ccc2OC)c1 [Compound 104] |
| 0.1 to 1 | < 0.1 | CNC(=O)CCNc1cc(C)nc(Nc2ccc(OC)c(-n3cc4c(n3)CCN(C)C4)c2)n1 [Compound 87] |
| > 10 | > 10 | CNc1cc(C)nc(Nc2ccc(OC)c(-n3cc4cc(C5CC5)ccc4n3)c2)n1 [Compound 145] |
| > 10 | > 10 | CCn1cc(NC(=O)c2cc(Nc3nc(C)cc(NC)n3)ccc2OC)cn1 [Compound 49] |
| < 0.1 | < 0.1 | CNc1cc(C)nc(Nc2ccc(OC)c(-n3cc(CN(C)C)cn3)c2)n1 [Compound 109, N2-(3-(4-((dimethylamino)methyl)-1H-pyrazol-1-yl)-4-methoxyphenyl)-N4,6-dimethylpyrimidine-2,4-diamine] |

Continued, molecule first:

| Compound | IC50 [1] [µM] | IC50 (EHMT1) [µM] |
| --- | --- | --- |
| CNc1cc(C)nc(Nc2ccc(OC)c(-c3cc4cnccc4[nH]3)c2)n1 [Compound 48] | 1 to 10 | < 0.1 |
| CNc1cc(C)nc(Nc2ccc(OC)c(-n3cnc(CN(C)C)n3)c2)n1 [Compound 61] | > 10 | 1 to 10 |
| CNc1cc(C)nc(Nc2ccc(OC)c(-c3nc4c([nH]3)CNCC4)c2)n1 [Compound 78] | > 10 | 1 to 10 |
| CNc1cc(C)nc(Nc2ccc(OC)c(-n3ccc(CN(C)C(C)=O)n3)c2)n1 [Compound 96] | > 10 | > 10 |
| CNc1cc(C)nc(Nc2ccc(OC)c(-c3nnc(CN(C)C)[nH]3)c2)n1 [Compound 73] | > 10 | 1 to 10 |
| CNc1cc(C)nc(Nc2ccc(OC)c(-n3cc(CN4CCC4)nn3)c2)n1 [Compound 121] | 0.1 to 1 | 0.1 to 1 |
| CNc1cc(C)nc(Nc2cnc(OC)c(-n3cc4c(n3)CCN(C)C4)c2)n1 [Compound 57] | 1 to 10 | 0.1 to 1 |
| CNc1cc(C)nc(Nc2ccc(OC)c(-c3nnc4n3CCN(C(=O)OC(C)(C)C)C4)c2)n1 [Compound 77] | > 10 | > 10 |
| CNc1cc(C)nc(Nc2ccc(OC)c(-n3cnc(CN4CC(F)C4)n3)c2)n1 [Compound 68] | > 10 | > 10 |
| CNCc1c(C)nn(-c2cc(Nc3nc(C)cc(NC)n3)ccc2OC)c1C [Compound 106] | > 10 | > 10 |
| CNc1cc(C)nc(Nc2ccc(OC)c(-n3cc4c(C)nccc4n3)c2)n1 [Compound 99] | 1 to 10 | 1 to 10 |
| CNc1cc(C)nc(Nc2ccc(OC)c(-n3cc4c(n3)CN(C)CC4)c2)n1 [Compound 3] | > 10 | 0.1 to 1 |
| CNc1cc(C)nc(Nc2ccc(OC)c(-n3cc(CN(C)C)nn3)c2)n1 [Compound 66] | 0.1 to 1 | < 0.1 |
| CNc1cc(C)nc(Nc2ccc(OC)c(-n3cc(C)c(CNC(C)=O)n3)c2)n1 [Compound 94] | > 10 | 1 to 10 |
| CNc1cc(C)nc(Nc2ccc(OC)c(-n3ncc4c3CN(C(C)=O)CC4)c2)n1 [Compound 75] | > 10 | > 10 |
| CNc1cc(C)nc(Nc2ccc(OC)c(-n3cnc(CN4CCC4)n3)c2)n1 [Compound 67] | > 10 | 1 to 10 |

| Compound | IC50 [1] [µM] | IC50 (EHMT1) [µM] |
| --- | --- | --- |
| CNc1cc(C)nc(Nc2ccc(OC)c(-n3nnc(CN(C)C)c3C)c2)n1 [Compound 139] | > 10 | > 10 |
| CNc1cc(C)nc(Nc2ccc(OC)c(-n3ncc4ncccc43)c2)n1 [Compound 119] | > 10 | 1 to 10 |
| COc1ncc(Nc2nc(C)cc(NCC3COC3)n2)cc1-n1cc(CN(C)C)nn1 [Compound 86] | > 10 | > 10 |
| CNc1cc(C)nc(Nc2ccc(OC)c(-n3ncc4c3CCNC4)c2)n1 [Compound 113, N2-(4-methoxy-3-(4,5,6,7-tetrahydro-1H-pyrazolo[4,3-c]pyridin-1-yl)phenyl)-N4,6-dimethylpyrimidine-2,4-diamine] | 0.1 to 1 | < 0.1 |
| CNc1cc(C)nc(Nc2ccc(OC)c(-c3nc4c([nH]3)CN(C)CC4)c2)n1 [Compound 79] | > 10 | 1 to 10 |
| CNc1cc(C)nc(Nc2ccc(OC)c(-n3nccc3CNC(C)=O)c2)n1 [Compound 76] | > 10 | > 10 |
| CNc1cc(C)nc(Nc2ccc(OC)c(-n3cc(C)c4c3CCN(C)C4)c2)n1 [Compound 81] | 1 to 10 | 1 to 10 |
| CNc1cc(C)nc(Nc2ccc(OC)c(-n3nnc(C)c3CN(C)C)c2)n1 [Compound 138] | > 10 | > 10 |
| CNc1cc(C)nc(Nc2cc(-n3cc4c(n3)CCN(C)C4)c(OC)cn2)n1 [Compound 65] | > 10 | 1 to 10 |
| CNC(=O)c1cn(-c2cc(Nc3nc(C)cc(NC)n3)ccc2OC)nc1C [Compound 103] | > 10 | > 10 |
| CNc1cc(C)nc(Nc2ccc(OC)c(-n3cc4c(n3)CCCN4)c2)n1 [Compound 56, N2-(4-methoxy-3-(4,5,6,7-tetrahydro-2H-pyrazolo[4,3-b]pyridin-2-yl)phenyl)-N4,6-dimethylpyrimidine-2,4-diamine hydrochloride] | > 10 | 1 to 10 |
| CNC(=O)c1cn(-c2cc(Nc3nc(C)cc(NC)n3)ccc2OC)nn1 [Compound 117] | > 10 | > 10 |
| CNc1cc(C)nc(Nc2ccc(OC)c(-n3cc4ccncc4n3)c2)n1 [Compound 41] | > 10 | 1 to 10 |
| CNCc1cn(-c2cc3nc(NC)cc(C)c3cc2OC)nn1 [Compound 122] | 1 to 10 | 0.1 to 1 |
| CNc1cc(C)nc(Nc2cnc(OC)c(-n3cnc(CN(C)C)n3)c2)n1 [Compound 62] | > 10 | 1 to 10 |

— US20220235065A1 (Epizyme, Inc., priority 2016, published 2022)
